Legend:
[1] = target: T1, von Hippel-Lindau disease tumor suppressor/Lysine-specific demethylase 4A (Homo sapiens, UniProt O75164+P40337); test: PROTAC activity at VHL/KDM4A in human KYSE-150 cells assessed as induction of KDM4A degradation at 0.1 uM incubated for 12 hrs by Western blot analysis relative to control; assay type: cell-based; settings: KYSE-150 cell line
[2] = target: T1, von Hippel-Lindau disease tumor suppressor/Lysine-specific demethylase 4A; test: PROTAC activity at VHL/KDM4A in human KYSE-150 cells assessed as induction of KDM4A degradation at 1 uM incubated for 12 hrs by Western blot analysis relative to control; assay type: cell-based; settings: KYSE-150 cell line

T1 sequence (O75164 2-1064 limits assumed): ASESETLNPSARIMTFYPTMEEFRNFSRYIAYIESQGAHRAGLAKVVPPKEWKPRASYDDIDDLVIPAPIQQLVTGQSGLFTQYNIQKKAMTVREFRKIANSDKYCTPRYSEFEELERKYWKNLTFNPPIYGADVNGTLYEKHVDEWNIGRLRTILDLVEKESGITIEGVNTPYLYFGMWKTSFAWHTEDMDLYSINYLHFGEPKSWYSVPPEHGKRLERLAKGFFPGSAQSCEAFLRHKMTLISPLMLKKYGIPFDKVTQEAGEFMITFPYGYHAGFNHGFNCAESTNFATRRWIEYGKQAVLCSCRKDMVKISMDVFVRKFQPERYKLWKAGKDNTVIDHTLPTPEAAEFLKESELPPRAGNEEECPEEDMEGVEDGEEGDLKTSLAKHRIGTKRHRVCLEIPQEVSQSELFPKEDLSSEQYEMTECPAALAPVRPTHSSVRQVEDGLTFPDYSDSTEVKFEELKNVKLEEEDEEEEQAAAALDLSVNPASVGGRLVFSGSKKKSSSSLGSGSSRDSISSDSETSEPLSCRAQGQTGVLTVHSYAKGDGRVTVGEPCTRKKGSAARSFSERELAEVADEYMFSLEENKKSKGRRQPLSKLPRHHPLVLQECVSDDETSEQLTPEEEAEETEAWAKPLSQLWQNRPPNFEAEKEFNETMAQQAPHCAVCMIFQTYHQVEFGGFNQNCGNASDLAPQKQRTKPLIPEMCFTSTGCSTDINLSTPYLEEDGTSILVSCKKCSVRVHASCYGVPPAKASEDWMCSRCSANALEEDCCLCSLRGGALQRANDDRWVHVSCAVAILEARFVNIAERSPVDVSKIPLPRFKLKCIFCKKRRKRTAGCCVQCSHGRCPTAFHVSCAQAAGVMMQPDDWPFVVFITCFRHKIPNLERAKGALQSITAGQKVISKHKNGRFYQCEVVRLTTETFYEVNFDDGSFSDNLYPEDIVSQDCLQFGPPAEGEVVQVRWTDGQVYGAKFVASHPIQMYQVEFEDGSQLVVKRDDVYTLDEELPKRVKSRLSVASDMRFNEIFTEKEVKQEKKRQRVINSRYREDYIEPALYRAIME
T1 sequence (P40337 whole entry partner): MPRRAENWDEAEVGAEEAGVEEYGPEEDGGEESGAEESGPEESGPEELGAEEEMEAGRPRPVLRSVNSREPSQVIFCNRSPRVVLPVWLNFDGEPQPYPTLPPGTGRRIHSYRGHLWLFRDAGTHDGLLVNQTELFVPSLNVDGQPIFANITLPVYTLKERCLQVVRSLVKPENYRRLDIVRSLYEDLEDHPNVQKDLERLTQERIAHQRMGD

| Activity [1] [%] | Activity [2] [%] | SMILES |
| --- | --- | --- |
| 30.5 | 43.9 | Cc1ncsc1-c1ccc([C@H](C)NC(=O)[C@@H]2C[C@@H](O)CN2C(=O)[C@@H](NC(=O)c2ccc(CCCCOc3ccc(N(C)c4ccc5c(c4)OCC[C@H]5CNc4cnccc4C(=O)O)cc3)cc2)C(C)(C)C)cc1 |
| 52.4 | 54.5 | Cc1ncsc1-c1ccc([C@H](C)NC(=O)[C@@H]2C[C@@H](O)CN2C(=O)[C@@H](NC(=O)c2ccc(CCCCCCOc3ccc(N(C)c4ccc5c(c4)OCC[C@H]5CNc4cnccc4C(=O)O)cc3)cc2)C(C)(C)C)cc1 |
| 38.7 | 47.3 | Cc1ncsc1-c1ccc([C@H](C)NC(=O)[C@@H]2C[C@@H](O)CN2C(=O)[C@@H](NC(=O)c2ccc(C#CCCCCOc3ccc(N(C)c4ccc5c(c4)OCC[C@H]5CNc4cnccc4C(=O)O)cc3)cc2)C(C)(C)C)cc1 |
| 42.7 | 63.1 | Cc1ncsc1-c1ccc([C@H](C)NC(=O)[C@@H]2C[C@@H](O)CN2C(=O)[C@@H](NC(=O)c2ccc(CCCCCOc3ccc(N(C)c4ccc5c(c4)OCC[C@H]5CNc4cnccc4C(=O)O)cc3)cc2)C(C)(C)C)cc1 |
| 15.9 | 14.1 | Cc1ncsc1-c1ccc([C@H](C)NC(=O)[C@@H]2C[C@@H](O)CN2C(=O)[C@@H](NC(=O)CCCCCOc2ccc(N(C)c3ccc4c(c3)OCC[C@H]4CNc3cnccc3C(=O)O)cc2)C(C)(C)C)cc1 |

Second part, the compound before the results:

| SMILES | Activity [1] [%] | Activity [2] [%] |
| --- | --- | --- |
| Cc1ncsc1-c1ccc([C@H](C)NC(=O)[C@@H]2C[C@@H](O)CN2C(=O)[C@@H](NC(=O)C2CCN(C(=O)CCCCCOc3ccc(N(C)c4ccc5c(c4)OCC[C@H]5CNc4cnccc4C(=O)O)cc3)CC2)C(C)(C)C)cc1 | 19.5 | 12 |
| Cc1ncsc1-c1ccc([C@H](C)NC(=O)[C@@H]2C[C@@H](O)CN2C(=O)[C@@H](NC(=O)CCCCCCCCCCOc2ccc(N(C)c3ccc4c(c3)OCC[C@H]4CNc3cnccc3C(=O)O)cc2)C(C)(C)C)cc1 | 36.7 | 58.6 |
| Cc1ncsc1-c1ccc([C@H](C)NC(=O)[C@@H]2C[C@@H](O)CN2C(=O)[C@@H](NC(=O)CCOCCOCCOCCOc2ccc(N(C)c3ccc4c(c3)OCC[C@H]4CNc3cnccc3C(=O)O)cc2)C(C)(C)C)cc1 | -2.5 | 15.5 |
| Cc1ncsc1-c1ccc([C@H](C)NC(=O)[C@@H]2C[C@@H](O)CN2C(=O)[C@@H](NC(=O)CCOCCOCCOc2ccc(N(C)c3ccc4c(c3)OCC[C@H]4CNc3cnccc3C(=O)O)cc2)C(C)(C)C)cc1 | 6.5 | 15.5 |
| Cc1ncsc1-c1ccc([C@H](C)NC(=O)[C@@H]2C[C@@H](O)CN2C(=O)[C@@H](NC(=O)CCCCCCOc2ccc(N(C)c3ccc4c(c3)OCC[C@H]4CNc3cnccc3C(=O)O)cc2)C(C)(C)C)cc1 | 48.5 | 57.9 |
| Cc1ncsc1-c1ccc([C@H](C)NC(=O)[C@@H]2C[C@@H](O)CN2C(=O)[C@@H](NC(=O)CCCCCCCOc2ccc(N(C)c3ccc4c(c3)OCC[C@H]4CNc3cnccc3C(=O)O)cc2)C(C)(C)C)cc1 | 37.1 | 57.2 |
| Cc1ncsc1-c1ccc([C@H](C)NC(=O)[C@@H]2C[C@@H](O)CN2C(=O)[C@@H](NC(=O)CCCCCCCCCCCOc2ccc(N(C)c3ccc4c(c3)OCC[C@H]4CNc3cnccc3C(=O)O)cc2)C(C)(C)C)cc1 | 47.1 | 58.5 |
| Cc1ncsc1-c1ccc([C@H](C)NC(=O)[C@@H]2C[C@@H](O)CN2C(=O)[C@@H](NC(=O)CCCCCCCOc2cccc(N(C)c3ccc4c(c3)OCC[C@H]4CNc3cnccc3C(=O)O)c2)C(C)(C)C)cc1 | -0.2 | 41.1 |
| Cc1ncsc1-c1ccc([C@H](C)NC(=O)[C@@H]2C[C@@H](O)CN2C(=O)[C@@H](NC(=O)CCCCCCCCOc2ccc(N(C)c3ccc4c(c3)OCC[C@H]4CNc3cnccc3C(=O)O)cc2)C(C)(C)C)cc1 | 34.6 | 53.9 |
